By EC50 is commonly meant the concentration giving half of the maximal effect.

One assay deals with T1, FAK (Homo sapiens, UniProt Q05397).
T1 construct: homozygous knock-in of a HiBiT tag (Promega Corporation, Madison, WI) to the C-terminus of the FAK gene in its natural genomic locus; endogenous in cells; host or cells: JHH-4-FAK-HiBiT clone d01 (CRISPR-Cas9 knock-in at the endogenous locus)
Description: FAK-HiBiT Degradation Assay. Type of assay: cell-based. The conditions noted are these: for DC50: JHH-4-FAK-HiBiT clone d01 cells, two hours incubation, 10-point dose response, 3-fold dilution starting at 1 μM, Nano-Glo HiBiT luminescence, read-out: FAK HiBiT EC50; for FAK HiBiT Ymin: lower limit of the four parameter fit (value A), Ymax derived using DMSO control, JHH-4-FAK-HiBiT cells, two hours. An excerpt: To generate JHH-4-FAK-HiBiT cells for the FAK degradation assay, JHH-4 cells (Japanese Collection of Research Biosources Cell Bank, Japan) were transfected with ribonucleoprotein reagents to introduce, by CRISPR-Cas9 editing, the homozygous knock-in of a HiBiT tag (Promega Corporation, Madison, WI) to the C-terminus of the FAK gene in its natural genomic locus. Clonal cell populations were established by expanding single cells after CRISPR-Cas9 editing, with a clonal cell line named JHH-4-FAK-HiBiT clone d01 confirmed by next generation DNA sequencing to contain the expected HiBiT edited FAK gene and was selected for FAK degradation screening. Cells were selected and maintained in complete DMEM media (DMEM, 10% Heat Inactivated FBS, and Non-Essential Amino Acids at 37° C. and 5% CO2). Cells were passaged every 3-4 days by reseeding 0.5×10^6 cells in a T75 flask.
Cells were dispensed into 384-well white plates (Corning #3570, NY) that were pre-spotted with compounds using an acoustic dispenser (Echo acoustic transfer system, Beckman Coulter Life Sciences, Carlsbad, CA) as a 10-point dose response curve with a 3-fold dilution starting at 1 μM and including a DMSO control. Twenty-five microliters of media containing 2000 JHH-4-FAK-HiBiT Clone d01 cells was dispensed per well. Assay plates were incubated at 37° C. with 5% CO2 for two hours. After incubation, 25 μL of Nano-Glo HiBiT Lytic Reagent Working Solution (Promega Corporation, Madison, WI) was added to each well and incubated at room temperature for 10 minutes protected from light. After 10 minutes, luminescence was read on a PHERAstar luminometer (BMG Labtech, Cary, NC).
To determine the half-maximal effective concentration (EC50) values for FAK-HiBIT degradation, a four parameter logistic model was used: (Sigmoidal Dose-Response Model)(FIT=(A+((B−A)/1+((C/x)^D)))) where C is the inflection point (EC50), D is the Hill slope, and A and B are the low and high limits of the fit respectively). The lower limit of the fit (value A) is referred to as Ymin. The maximum limit constraint, Ymax, was derived using DMSO control. The curves were processed and evaluated using Dotmatics Atlas (Insightful Science, LLC, Boston, MA).
For orientation: The HiBiT peptide binds its large partner to form an active luciferase.

The next assay has as its system CAL-51 cells. Description: CAL-51 Cell Proliferation Assay. It is filed as cell-based. The conditions noted are these: for EC50: Homo sapiens, 120 hours incubation, 10-point dose response, 4-fold dilutions starting at 10 μM, Cell-Titer-Glo, read-out: CAL-51 Prolif EC50; for CAL-51 Prolif Ymin: minimal percent of DMSO control observed in the concentrations tested (Ymin-obs), 120 hours. The text has this:
CAL-51 cells were obtained from Bristol Myers Squibb internal cell banks (originally sourced from DSMZ-German Collection of Microorganisms and Cell Cultures GmbH, Germany) and cultured in RPMI complete media (RPMI-1640, 10% Fetal Bovine serum, 1× Antibiotic-Antimycotic, and 1× Non-Essential Amino Acids). Compounds were dispensed into 384-well plates using an acoustic dispenser (Beckman Coulter Life Sciences, Carlsbad, CA) in duplicate with 14 compounds on each plate. For each compound, a 10-point dose response was printed at 4-fold dilutions starting at 10 μM. The DMSO concentration was kept constant for a final assay concentration of 0.1% per well assuming 50 uL final media volume. Compound plates were sealed and frozen at −20° C. until use.
For each assay batch, compound plates were thawed and allowed to reach room temperature, and cells were seeded at 350 cells per well in 50 μl complete RPMI media. After 120 hours of incubation at 37° C. and 5% CO2, cells were lysed by addition of 25 μL of Cell-Titer-Glo Reagent (Promega Corporation, Madison, WI), as per manufacturer's instructions, protected from light, shaken for 20 minutes, and total luminescence read by a CLARIOstar Plus plate reader (BMG LabTech, Cary, NC). Total luminescence signal is linearly correlated with cell number remaining in the well.
Luminescence data was processed per plate by subtracting reagent-only “blank” well luminescence from all measured values and calculating a percent of DMSO control value for each treatment well. Then, to determine the half-maximal effective concentration (EC50) values for cell growth inhibition, a four parameter logistic model was fit to the data for each DMSO-normalized compound: Sigmoidal Dose-Response Model: (FIT=(A+((B−A)/1+((C/x)^D)))) where C is the inflection point (EC50), D is the Hill slope, and A and B are the low and high limits of the fit respectively. The lower limit of the fit (value A) is referred to as Ymin-calculated. The minimal percent of DMSO control that is observed in the concentrations tested for each compound is labeled as “Ymin-obs”, and was recorded and reported in the tables. Sigmoidal fit curves were processed and evaluated using Dotmatics Atlas (Insightful Science, LLC, Boston, MA).

T1 sequence (Q05397 whole entry): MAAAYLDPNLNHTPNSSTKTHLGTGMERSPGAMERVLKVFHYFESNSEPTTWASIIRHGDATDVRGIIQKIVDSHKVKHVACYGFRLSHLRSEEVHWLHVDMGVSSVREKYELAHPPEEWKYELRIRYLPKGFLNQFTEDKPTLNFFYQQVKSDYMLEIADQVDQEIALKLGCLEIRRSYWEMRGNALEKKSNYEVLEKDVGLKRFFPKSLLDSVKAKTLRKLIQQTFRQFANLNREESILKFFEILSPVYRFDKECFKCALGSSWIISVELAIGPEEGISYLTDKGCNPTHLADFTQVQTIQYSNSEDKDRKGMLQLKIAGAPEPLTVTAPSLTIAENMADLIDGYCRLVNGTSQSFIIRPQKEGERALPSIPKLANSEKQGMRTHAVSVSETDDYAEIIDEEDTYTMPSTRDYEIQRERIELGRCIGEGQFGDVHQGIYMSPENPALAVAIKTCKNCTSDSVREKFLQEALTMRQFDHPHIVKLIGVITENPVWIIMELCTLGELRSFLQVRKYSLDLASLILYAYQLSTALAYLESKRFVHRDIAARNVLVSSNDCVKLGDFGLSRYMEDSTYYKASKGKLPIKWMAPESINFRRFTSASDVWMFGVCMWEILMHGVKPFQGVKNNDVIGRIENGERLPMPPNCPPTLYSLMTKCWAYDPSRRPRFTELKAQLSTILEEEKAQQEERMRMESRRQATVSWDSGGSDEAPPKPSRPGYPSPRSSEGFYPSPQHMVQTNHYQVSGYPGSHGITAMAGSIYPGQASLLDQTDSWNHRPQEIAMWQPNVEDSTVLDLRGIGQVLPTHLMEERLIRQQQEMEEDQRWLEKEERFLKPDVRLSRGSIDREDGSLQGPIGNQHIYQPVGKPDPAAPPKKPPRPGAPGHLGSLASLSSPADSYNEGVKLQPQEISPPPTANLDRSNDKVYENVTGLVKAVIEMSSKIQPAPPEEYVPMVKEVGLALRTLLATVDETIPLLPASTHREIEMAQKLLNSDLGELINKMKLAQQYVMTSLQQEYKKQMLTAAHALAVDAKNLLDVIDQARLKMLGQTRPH

With `CC(C)Nc1nc2c(cnn2Cc2ccc3c(c2)CN([C@H]2CCC(=O)NC2=O)C3=O)c(-c2ncc(F)cc2Cl)c1F` (single isomer, unassigned) [Example 9], at FAK, the DC50 amounted to 0.55 nM and the “FAK HiBiT Ymin” value worked out at 9.43. In the assay with CAL-51 cells, the EC50 stood at 0.46 nM and the “CAL-51 Prolif Ymin” value is reported as 22.89.
The like results for `O=C1CC[C@H](N2Cc3c(ccc(Cn4ncc5c(-c6ncc(F)cc6Cl)cc(N6CC(F)C6)nc54)c3F)C2=O)C(=O)N1` (single isomer, unassigned) [Example 61] were, in that order, 3.6 nM, 7.65, 7.1 nM and 35.56.
For `O=C1CC[C@@H](N2Cc3cc(Cn4ncc5c(-c6ncc(C(F)(F)F)cc6Cl)c(F)c(N6CC(F)C6)nc54)ccc3C2=O)C(=O)N1` (single isomer, unassigned) [Example 78], in that order: 8.4 nM, 5.59, 1.76 nM and 24.33.
Regarding `O=C1CC[C@@H](N2Cc3cc(Cn4ncc5c(-c6ncc(C(F)(F)F)cc6Cl)cc(N6CC(F)C6)nc54)ccc3C2=O)C(=O)N1` (single isomer, unassigned) [Example 87], at FAK, the DC50 stood at 13 nM and the “FAK HiBiT Ymin” value stood at 5.32. Moreover, in the assay on CAL-51 cells, the EC50 worked out at 2.17 nM and the “CAL-51 Prolif Ymin” value is 38.15.
For `O=C1CC[C@H](N2Cc3cc(Cn4ncc5c(-c6ncc(C7COC7)cc6Cl)cc(N6CC(F)C6)nc54)ccc3C2=O)C(=O)N1` (single isomer, unassigned) [Example 108], in that order: 40.5 nM, 13.46, 18.2 nM and 28.68.
For `O=C1CC[C@@H](N2Cc3c(ccc(Cn4ncc5c(-c6ncc(F)cc6Cl)cc(N6CC(F)C6)nc54)c3F)C2=O)C(=O)N1` (single isomer, unassigned) [Example 109], in that order: 42.1 nM, 11.09, 10.2 nM and 35.33.
For the compound `O=C1CC[C@@H](N2Cc3cc(Cn4ncc5c(-c6ncc(C7COC7)cc6Cl)cc(N6CC(F)C6)nc54)ccc3C2=O)C(=O)N1` (single isomer, unassigned) [Example 127], at FAK, the DC50 came out at 213 nM and the “FAK HiBiT Ymin” value is reported as 42.87. Besides, in the assay on CAL-51 cells, the EC50 amounted to 8.94 nM and the “CAL-51 Prolif Ymin” value is 37.97.
As to `O=C1CC[C@H](N2Cc3cc(Cn4ncc5c(-c6ncc(C(F)(F)F)cc6Cl)cc(N6CCC(O)C6)nc54)ccc3C2=O)C(=O)N1` (stereo in doubt) [Example 106, (3S)-3-[5-({4-[3-chloro-5-(trifluoromethyl)pyridin-2-yl]-6-[(3R)-3-hydroxypyrrolidin-1-yl]-1H-pyrazolo[3,4-b]pyridin-1-yl}methyl)-1-oxo-2,3-dihydro-1H-isoindol-2-yl]piperidine-2,6-dione], at FAK, the DC50 came out at 37.9 nM and the “FAK HiBiT Ymin” value is 17.24. In addition, in the assay on CAL-51 cells, the EC50 came out at 54.6 nM and the “CAL-51 Prolif Ymin” value was determined as 53.56.
For `CC(C)Nc1cc(-c2ncccc2Cl)c2cnn(Cc3ccc4c(c3)CN(C3CCC(=O)NC3=O)C4=O)c2n1` (stereo not shown) [Example 117, 3-(5-{[4-(3-chloropyridin-2-yl)-6-[(propan-2-yl)amino]-1H-pyrazolo[3,4-b]pyridin-1-yl]methyl}-1-oxo-2,3-dihydro-1H-isoindol-2-yl)piperidine-2,6-dione], at FAK, the DC50 was found to be 73.7 nM and the “FAK HiBiT Ymin” value is 25.54.
For `N#Cc1ccc(-c2cc(N3CCC3)nc3c2cnn3Cc2cnc3c(c2)CN(C2CCC(=O)NC2=O)C3=O)c(Cl)c1` (stereo not shown) [Example 118, 4-[6-(azetidin-1-yl)-1-{[6-(2,6-dioxopiperidin-3-yl)-7-oxo-5H,6H,7H-pyrrolo[3,4-b]pyridin-3-yl]methyl}-1H-pyrazolo[3,4-b]pyridin-4-yl]-3-chlorobenzonitrile], in that order: 79.6 nM and 12.49.
Consider `O=C1CCC(N2Cc3cc(Cn4ncc5c(-c6ccc(C7(O)CCOCC7)cn6)cc(N6CC(F)C6)nc54)ccc3C2=O)C(=O)N1` (stereo not shown) [Example 122, 3-(5-{[6-(3-fluoroazetidin-1-yl)-4-[5-(4-hydroxyoxan-4-yl)pyridin-2-yl]-1H-pyrazolo[3,4-b]pyridin-1-yl]methyl}-1-oxo-2,3-dihydro-1H-isoindol-2-yl)piperidine-2,6-dione], for which, at FAK, the DC50 was determined as 98.1 nM and the “FAK HiBiT Ymin” value is 74.73.
Consider `CC(C)(O)c1ccc(Cl)c(-c2cc(N3CCC3)nc3c2cnn3Cc2ccc3c(c2)CN(C2CCC(=O)NC2=O)C3=O)c1` (stereo not shown) [Example 124, 3-(5-{[6-(azetidin-1-yl)-4-[2-chloro-5-(2-hydroxypropan-2-yl)phenyl]-1H-pyrazolo[3,4-b]pyridin-1-yl]methyl}-1-oxo-2,3-dihydro-1H-isoindol-2-yl)piperidine-2,6-dione], for which, on FAK, the DC50 came out at 124 nM and the “FAK HiBiT Ymin” value turned out to be 43.76.
The like results for `CC(C)Nc1cc(-c2ncc(C#N)cc2F)c2cnn(Cc3ccc4c(c3)CN(C3CCC(=O)NC3=O)C4=O)c2n1` (stereo not shown) [Example 137, 6-(1-{[2-(2,6-dioxopiperidin-3-yl)-1-oxo-2,3-dihydro-1H-isoindol-5-yl]methyl}-6-[(propan-2-yl)amino]-1H-pyrazolo[3,4-b]pyridin-4-yl)-5-fluoropyridine-3-carbonitrile] were, in that order, at least 1000 nM and 81.91.
As for `Cc1ncccc1-c1cc(N2CC(F)C2)nc2c1cnn2Cc1ccc2c(c1)CN(C1CCC(=O)NC1=O)C2=O` (stereo not shown) [Example 139, 3-(5-{[6-(3-fluoroazetidin-1-yl)-4-(2-methylpyridin-3-yl)-1H-pyrazolo[3,4-b]pyridin-1-yl]methyl}-1-oxo-2,3-dihydro-1H-isoindol-2-yl)piperidine-2,6-dione], at FAK, the DC50 is at least 1000 nM and the “FAK HiBiT Ymin” value came out at 93.99.
For `O=C1CC[C@H](N2Cc3cc(Cn4ncc5c(-c6ncc(Cl)cc6F)cc(N6CC[C@H](O)C6)nc54)ccc3C2=O)C(=O)N1` [Example 141, (3S)-3-(5-{[4-(5-chloro-3-fluoropyridin-2-yl)-6-[(3S)-3-hydroxypyrrolidin-1-yl]-1H-pyrazolo[3,4-b]pyridin-1-yl]methyl}-1-oxo-2,3-dihydro-1H-isoindol-2-yl)piperidine-2,6-dione], in that order: 9 nM and 53.

These data come from patent US20260078119A1, “DEGRADER COMPOUNDS AND USES THEREOF” (Bristol-Myers Squibb Company, priority 2024, published 2026).
